US20090311795A1, “BILATERAL CONTROL OF FUNCTIONS TRADITIONALLY REGULATED BY ONLY SEROTONIN OR ONLY DOPAMINE” (priority 2002, published 2009)

How the values were obtained:
Type in all cases: in vivo, human
urinary serotonin = assay: Urinary serotonin monoamine level assay (ELISA, per gram of creatinine) under amino acid precursor dosing
Description: (§1) For monoamine testing of monoamines of The System, urine is collected approximately 5 to 6 hours prior onset of the sleep cycle and just prior to any amino acid dosing the subject may or may not be taking close to that time period. Once the urine sample is obtained, laboratory assay of the monoamine of The System are performed as well as a urinary creatinine assay and the results are reported in terms of micrograms of monoamine per gram of creatinine.
(§2) Referring now to the data summarized herein, the data is from a database of subjects who have been diagnosed by a licensed healthcare provider as having one or more monoamine dysfunction(s) associated with the serotonin and/or catecholamine systems. The database fields include: • 1. The monoamine diagnosis made by a licensed healthcare provider; • 2. Amino acid dosing of amino acid precursors of the serotonin and dopamine monoamines; • 3. Laboratory assay of urinary serotonin and catecholamine monoamine levels; • 4. The subject's sex; • 5. The subject's age and date of birth; • 6. The subject's weight; • 7. The subject's height; • 8. Any allergies the subject might have; • 9. Any medications (prescription and/or non-prescription) with dosing that the subject might be taking; • 10. Type of license held by the caregiver; and • 11. The subject's state and zip code of residence.
(§3) Also referring to the summarized date, the monoamine analysis performed was subjected to the following criteria: • 1. Urinary monoamine reference ranges reported by the laboratory were determined after precision and accuracy studies had validated initial calibration results; • 2. The reported reference ranges of the laboratory performing the assays were within ±2 standard deviations of the mean for the general population used in calibration; • 3. The reported reference ranges are for adults (18 years of age and older); • 4. Urinary monoamine samples were collected at least 3 to 4 hours after a subject took a dose of amino acid precursors; • 5. Urinary monoamine samples were collected 5 to 6 hours before the onset of the sleep cycle (bed time); • 6. […]

[1] = system: urinary serotonin or dopamine; assay: Phase (1, 2, 3) of urinary monoamine response to amino acid precursor dosing, from serial urinary assays; settings: for amino acid dosing change required to move between phase 1 and phase 3, much larger changes / amino acid dosing change that moved subjects between phase 1 and phase 3, very small changes: 5-HTP with L-Tyrosine or L-Dopa; for amino acid dosing change required to move between phase 1 and phase 3, much larger changes: other subjects; for amino acid dosing change that moved subjects between phase 1 and phase 3, very small changes: some observed subjects
From the text: However, according to certain embodiments, the predictability of determining an individual or group response of urinary serotonin and/or dopamine monoamine levels between two assays is possible when it is properly determined that the subject is in one of three phases of urinary monoamine response to amino acid precursor administration. As identified above, there are at least three phases (referred to as phase 1, phase 2, and phase 3) of urinary monoamine response to amino acid precursor administration. In phase 1, the urinary monoamine level drops as the total amino acid precursor dosing of serotonin and dopamine is increased. In phase 1, the urinary monoamine level increases as the total amino acid precursor dosing of serotonin and dopamine is decreased. In phase 2, the urinary monoamine level remains below the therapeutic range and relatively constant as the total amount of monoamine amino acid precursor dosing is increased or decreased. In order for urinary monoamines to be in phase 2, subtherapeutic urinary monoamine levels must exist. In phase 3, the urinary monoamine level increases as the total amount of amino acid precursor dosing is increased. In phase 3, the urinary monoamine level decreases as the total amount of amino acid precursor dosing is decreased.
In certain embodiments, the phase of the urinary monoamines in response to amino acid therapy can properly be determined by obtaining two laboratory assays on two separate days with the subject taking a different amino acid dosing of serotonin and catecholamine precursors for each test. In general, at least 7 days must elapse between amino acid dosing changes and laboratory assay, but shorter time periods may be indicated at the decision of the individual obtaining the test. The laboratory assays should also be performed on samples that are collected at least 3 to 5 days after the last change in amino acid precursor dosing or start in amino acid precursor dosing of the serotonin and dopamine monoamines. If during the first assay the subject was taking supplemental amino acid precursors of serotonin and dopamine monoamines, then it is preferable that the second assay is performed after the dosing of the supplemental amino acid precursors has changed. The change in supplemental amino acid precursor may be for the serotonin monoamine and/or the dopamine monoamine. If both of the supplemental amino acid precursors of the serotonin and dopamine monoamines are changed, it is preferable that the dosing of both supplemental amino acid precursors is increased or the dosing of both supplemental amino acid precursors is decreased. The subject also should have not missed any dosing of amino acid precursors in the 3 to 5 day period before the sample is collected.
1. Phase 1: • a. Where an increase in amino acid precursor dosing of either the serotonin amino acid precursor and/or the dopamine amino acid precursor causes a decrease in the second assay urinary serotonin or dopamine monoamine levels. • b. Where a decrease in amino acid dosing of either the serotonin amino acid precursor and/or the dopamine amino acid precursor causes an increase in the second assay urinary serotonin or dopamine monoamine levels.
2. Phase 2: • a. Where urinary serotonin and/or dopamine monoamine levels are less than the therapeutic range.
3. Phase 3: • a. Where an increase in amino acid precursor dosing of either the serotonin amino acid precursor and/or the dopamine amino acid precursor causes an increase in the second assay urinary serotonin or dopamine monoamine levels. • b. Where a decrease in the amino acid precursor dosing of either the serotonin amino acid precursor and/or the dopamine amino acid precursor causes a decrease in the second assay urinary serotonin or dopamine monoamine levels.

urinary dopamine = assay: Urinary dopamine monoamine level assay (RIA, per gram of creatinine) under amino acid precursor dosing
Description: as §1, §2, §3

| Compound | urinary serotonin level (urinary serotonin; Example 2, one subject, increase in L-dopa between first and third assay) | urinary excretion of serotonin in phase 3 (urinary serotonin; addition of unopposed L-dopa) | amino acid dosing change required to move between phase 1 and phase 3, much larger changes [1] | amino acid dosing change that moved subjects between phase 1 and phase 3, very small changes [1] | urinary serotonin levels on the second laboratory assay (urinary serotonin; Example 1, one subject, increase in tyrosine) | change in urinary dopamine levels (urinary dopamine; Example 1, one subject, increase in tyrosine, dopamine subtherapeutic) | highest urinary dopamine established in phase 3 by administration of tyrosine (urinary dopamine; phase 3, tyrosine as dopamine precursor) | excretion of dopamine in phase 3 by the kidneys (urinary dopamine; administration of 5-HTP alone) | 5-HTP dosing giving phase 3 therapeutic urinary serotonin level ([1]; Example 4, final assay, tyrosine increased) | change of 5-HTP dosing that moved urinary serotonin levels from phase 3 to phase 1 ([1]; Example 6, between test 1 and test 2) | daily dosing at which the phase 2/phase 3 inflection point occurs ([1]; dose-response curve of one embodiment, urinary serotonin, balanced amino acids) | daily dosing at the phase 2/phase 3 inflection point, low-dose subjects ([1]; subjects who experience the inflection point at low dose) | daily dosing at the phase 2/phase 3 inflection point, high-dose subjects ([1]; subjects without inflection point until this dose per day) |
| --- | --- | --- | --- | --- | --- | --- | --- | --- | --- | --- | --- | --- | --- |
| N[C@@H](Cc1ccc(O)c(O)c1)C(=O)O [L-dopa, 1-3,4-dihydroxyphenylalanine, reference compound] | increased | increases markedly | 900 mg | 60 mg |  |  |  |  |  |  |  |  |  |
| N[C@@H](Cc1ccc(O)cc1)C(=O)O [L-Tyrosine] |  |  | 5,000 mg | 375 mg | marked increase | without much change | ≤ 475 micrograms of dopamine per gram of creatinine |  |  |  |  |  |  |
| N[C@@H](Cc1c[nH]c2ccc(O)cc12)C(=O)O [5-HTP, 5-hydroxytryptophan] |  |  | 900 mg | 37.5 mg |  |  |  | marked increase | 150 mg per day | 150 mg per day | approximately 800 milligrams per day | 50 milligrams per day | 1,500 milligrams |
